Reference: US20240240209A1, “SYNTHESIS OF ENANTIOPURE CIS-A-IRONE FROM A RENEWABLE CARBON SOURCE” (Agency for Science, Technology and Research, priority 2021, published 2024)
Changes are numbered by the printed parent chain.

Experiments:
pMT6 = test: Methylation and cyclization of structurally similar terpenoids by E. coli cell lysate overexpressing pMT6; type: biochemical, Streptomyces blastmyceticus; settings: GFP lysate as control
Method: Using E. coli cell lysate overexpressing pMT6, a range of structurally similar terpenoids for methylation and cyclization reaction was assayed (FIG. 21a). E. coli lysate overexpressing green fluorescence protein was used as a control. […] Citral was not stable and was reduced to geraniol in the presence of cell lysate. […] Compound identity was searched against the National Institute of Standards and Technology (NIST) library. […] Lastly, for the monoterpene ketone, geranylacetone, with saturated C7-C8 bond, multiple methylated products were detected based on the molecular ion.

pMT7 = pMT7 (Streptomyces blastmyceticus, UniProt A0A077K7L1, A202L/L180A/L273V/S182E/Y200F/Y65F); test: biochemical
pMT7, sequence (A0A077K7L1 entry or part of it Y65F/L180A/S182E/Y200F/A202L/L273V): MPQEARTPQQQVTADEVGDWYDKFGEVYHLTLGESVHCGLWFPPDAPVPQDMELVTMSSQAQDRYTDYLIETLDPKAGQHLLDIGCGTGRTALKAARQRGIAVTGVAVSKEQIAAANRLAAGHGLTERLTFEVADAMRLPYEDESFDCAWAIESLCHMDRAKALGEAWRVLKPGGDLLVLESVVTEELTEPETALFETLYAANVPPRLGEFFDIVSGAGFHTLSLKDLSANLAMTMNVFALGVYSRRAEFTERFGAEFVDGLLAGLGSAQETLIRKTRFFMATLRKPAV
Method: (§1) It was calculated by dividing the pMT7 activity where no additive was added. […] It was calculated by dividing the pMT7 and pMT10 activity where no additive was added. […] All the purified enzyme reactions were done in triplicates. […] The bar chart represents the mean value of replicated reactions.
The steady-state kinetic parameters of pMT7 were determined (Table 3). […] Since pMT7 is an hexamer in solution^10, its oligomeric state before and after the reaction was examined.
(§2) Following enzyme purification, a 100 μl enzymatic reaction was setup with a final concentration of 0.5 mg/ml of enzyme, 40 mg/L psi-ionone, 0.2 mM SAM, 100 mM Tris (pH 7), 10 mM MgCl2 and 15 mM NaCl. The reaction was done in 0.2 ml PCR strips and incubated at 28° C., 1200 rpm overnight. Alongside, a control without enzyme (with 40% glycerol only) was included as negative control. The next day, cis-α-irone was extracted with 100 μl of ethyl acetate and 50 μl organic layer taken for GCMS analysis. For enzyme characterization, similar enzymatic reaction was performed, with varying concentration of psi-ionone (2-40 mg/L) and SAM (10-100 μM), and the reaction was stopped after 2 h incubation at 28° C. to ensure the enzymatic conversion is still within linear range.

pMT10 = pMT10 (Streptomyces blastmyceticus, UniProt A0A077K7L1, A202L/C156A/L180A/L273V/S182E/T91P/Y200F/Y65F); test: biochemical
pMT10, sequence (A0A077K7L1 entry or part of it Y65F/T91P/C156A/L180A/S182E/Y200F/A202L/L273V): as the sequence (A0A077K7L1 entry or part of it Y65F/L180A/S182E/Y200F/A202L/L273V) above
Method: as §1, §2

[1] = target: T1, Streptomyces blastmyceticus O-methyltransferase TleD (pMT1, SEQ ID No. 3) variant pMT7, Y200F S182E L273V L180A A202L Y65F, SEQ ID No. 9 (Streptomyces blastmyceticus, UniProt A0A077K7L1, A202L/L180A/L273V/S182E/Y200F/Y65F); test: Steady-state kinetics of purified pMT7; type: biochemical; settings: pH 7, 28° C., 2 h
T1 sequence (A0A077K7L1 1-289 Y65F/L180A/S182E/Y200F/A202L/L273V): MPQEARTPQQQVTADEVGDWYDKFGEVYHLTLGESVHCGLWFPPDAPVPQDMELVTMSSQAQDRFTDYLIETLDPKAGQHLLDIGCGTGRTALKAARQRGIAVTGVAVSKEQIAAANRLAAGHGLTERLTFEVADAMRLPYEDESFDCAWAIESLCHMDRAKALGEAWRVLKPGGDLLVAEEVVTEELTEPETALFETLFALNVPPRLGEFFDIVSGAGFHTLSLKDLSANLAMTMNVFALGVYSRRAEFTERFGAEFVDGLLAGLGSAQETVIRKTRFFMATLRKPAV
Method: (§3) His-tag protein purification was carried out according to the manufacturer's instruction (Cube Biotech). For each enzyme, it was overexpressed in 200 ml of ZYM autoinduction media with 5 mM lactose at 20° C. for 36 hrs. Following that, cells were pelleted and resuspended with 10 ml of His-binding buffer (50 mM Tris, pH 8, 0.5M NaCl and 20 mM imidazole) supplemented with 1 mg/ml lysozyme and 3 U/ml of benzonase nuclease (Merck) and treated for 1 hour (hr) at 20° C., 300 rpm. The cells were further lysed by 2 cycles of freeze-thawing with freezing at −80° C. for 4 hrs and thawing at room temperature for 45 mins. The supernatant (soluble fraction) was obtained by centrifuging at 15,000 g for 30 mins at 4° C. […] Protein quantification and purity were determined through micro BCA assay (Pierce) and running SDS-PAGE, respectively.
(§4) To determine the purified enzyme kinetics and in vivo production, the reaction mixture was extracted with 0.5× or 1× volume of ethyl acetate and the organic phase was diluted appropriately before subjected to GCMS analysis. The samples were analyzed on an Agilent Intuvo 9000 GC system equipped with Agilent DB-WAX Ultra Inert Intuvo GC column (30 m×250 μm×0.25 μm) and Agilent 5977B mass spectrometry with high efficiency source. […] The concentration of psi-ionone and irone were calculated by interpolating with a standard curve prepared by synthetic standards.

[2] = target: T2, Streptomyces blastmyceticus O-methyltransferase TleD (pMT1, SEQ ID No. 3) variant pMT10, Y200F S182E L273V L180A A202L Y65F C156A T91P, SEQ ID No. 12 (Streptomyces blastmyceticus, UniProt A0A077K7L1, A202L/C156A/L180A/L273V/S182E/T91P/Y200F/Y65F); test: Steady-state kinetics of purified pMT10; type: biochemical; settings: pH 7, 28° C., 2 h, psi-ionone 2-40 mg/L, SAM 10-100 μM
T2 sequence (A0A077K7L1 1-289 Y65F/T91P/C156A/L180A/S182E/Y200F/A202L/L273V): T1 sequence (A0A077K7L1 1-289 Y65F/L180A/S182E/Y200F/A202L/L273V) with T91P, C156A
Method: as §3, §4

[3] = SAH analogues (0-200 μM) or excess α-irone supplemented

## CC(C)=CCCC(C)=CC=O [Citral]
pMT6
  methylated products in pMT6 reaction (SPME-GCMS): not stable

## Nc1ncnc2c1ncn2[C@@H]1O[C@H](CSCC[C@H](N)C(=O)O)[C@@H](O)[C@H]1O [SAH, S-adenosyl-L-homocysteine]
pMT7
  IC50: 4.9 µM
pMT7; 2 μM SAH supplemented
  effect on pMT7 activity: led to a reduction in pMT7 activity
pMT7; 20 µM SAH supplemented
  effect on pMT7 methyltransferase activity: nearly abolished the methyltransferase activity
pMT10
  IC50: 3.1 µM

## C[S+](CC[C@H](N)C(=O)[O-])C[C@H]1O[C@@H](n2cnc3c(N)ncnc32)[C@H](O)[C@@H]1O (stereo partly drawn) [SAM, S-adenosylmethionine]
[1]; psi-ionone 2-40 mg/L, SAM 10-100 μM
  Km: 54.6 µM
[2]
  Km: 30.5 ± 1.3 µM

## Nc1ncnc2nc[nH]c12 [adenine]
pMT7; [3]
  effect on pMT7 methyltransferase activity: did not alter the methyltransferase activity significantly

## Nc1ncnc2c1ncn2[C@@H]1O[C@H](CO)[C@@H](O)[C@H]1O [adenosine]
pMT7; [3]
  effect on pMT7 methyltransferase activity: did not alter the methyltransferase activity significantly

## CC(C)=CCC/C(C)=C/CO [geraniol]
pMT6
  methylated products in pMT6 reaction (SPME-GCMS): detected methylated products

## CC(=O)CC/C=C(\C)CCC=C(C)C [geranylacetone]
pMT6
  methylated products in pMT6 reaction (SPME-GCMS): detected methylated products

## N[C@@H](CCS)C(=O)O [homocysteine]
pMT7; [3]
  effect on pMT7 methyltransferase activity: did not alter the methyltransferase activity significantly

## C=CC(C)(O)CCC=C(C)C (stereo not drawn) [linalool]
pMT6
  methylated products in pMT6 reaction (SPME-GCMS): detected methylated products

## CC(=O)/C=C/C=C(\C)CCC=C(C)C [psi-ionone]
[1]; Table 3
  kcat: 4.4 ± 0.2 ×10^3 h^−1

## CC(=O)/C=C/C1C(C)=CCC(C)C1(C)C (stereo not drawn) [α-irone]
pMT7; [3]
  effect on pMT7 methyltransferase activity: did not alter the methyltransferase activity significantly
